Earlier results, collected in patent US20170312324A1, “USE OF MAITAKE AND MAITAKE GRIFOLAN D COMPONENT IN PREPARATION OF ANTIDEPRESSANT DRUG” (Yunnan University, priority 2014, published 2017).

System: tumor
Settings: comparison experiment with mitomycin

## CO[C@@]12[C@H](COC(N)=O)C3=C(C(=O)C(C)=C(N)C3=O)N1C[C@@H]1N[C@@H]12 [mitomycin]
  anti-tumor rate / tumor inhibition rate: 45%
